Experiments:
HiBit-KRAS^G12C [1] = target: T1, HiBit-KRAS^G12C (Homo sapiens, UniProt P01116, G12C); experiment: HiBit degradation assay in MiaPaCa-2 HiBit-KRas^G12C cells; type: cell-based; settings: 24 hours; for DC50: read-out: KRas^G12C-HiBiT (MiaPaCa; 0.5% DMSO) IC50
How it was run: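 MiaPaCa-2 cells with CRISPR N-terminal HiBit knock-in on one endogenous KRAS^G12C allele, treated 24 hours at 37° C with compound titrated 10 μM to 20 nM (0.1% or 0.5% DMSO). Lytic HiBit luminescence normalized to DMSO, 4-parameter fit giving DC50 and Dmax; points cytotoxic to […] cells by alamar blue excluded.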

HiBit-KRAS^G12C [2] = target: T1, HiBit-KRAS^G12C; experiment: HiBit degradation assay in SW1573 HiBit-KRas^G12C cells; type: cell-based; set-up: expressed in transfected cells; host or cells: SW1573 (clone E6), modified pcDNA3.1 vector, TK promoter; settings: 24 hours
How it was run: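 SW1573 cells stably expressing N-terminally HiBit-tagged KRAS G12C, under the TK promoter, were treated 24 h at 37 °C with 10 μM to 20 nM compound in 0.1% or 0.5% DMSO. Residual HiBit luminescence normalised to DMSO and fitted with a 4-parameter model for DC50 and Dmax. Points with ≥50% viability loss (alamar blue) excluded.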

[3] = MiaPaCa-2 HiBit-KRas^G12C cells, 0.5% DMSO
[4] = read-out: KRas^G12C-HiBiT (SW1573; 0.5% DMSO) IC50***, SW1573 HiBit-KRas^G12C, 0.5% DMSO
[5] = MIA PaCa-2, read-out: KRas^G12C-HiBiT (MiaPaCa; 0.1% DMSO) DMax, MiaPaCa-2 HiBit-KRas^G12C cells, 0.1% DMSO, maximum degradation
[6] = SW1573, read-out: KRas^G12C-HiBit (SW1573; 0.1% DMSO) Dmax**, SW1573 HiBit-KRas^G12C, 0.1% DMSO
[7] = SW1573 HiBit-KRas^G12C, 0.1% DMSO, read-out: KRas^G12C-HIBit (SW1573; 0.1% DMSO) DC50*
[8] = MIA PaCa-2, MiaPaCa-2 HiBit-KRas^G12C cells, 0.5% DMSO, maximum degradation, read-out: KRas^G12C-HiBiT (MiaPaCa; 0.5% DMSO) DMax
[9] = SW1573, SW1573 HiBit-KRas^G12C, 0.5% DMSO, read-out: KRas^G12C-HiBiT (SW1573; 0.5% DMSO) Dmax**

T1 sequence (P01116 1-186 isoform P01116-2 G12C limits assumed): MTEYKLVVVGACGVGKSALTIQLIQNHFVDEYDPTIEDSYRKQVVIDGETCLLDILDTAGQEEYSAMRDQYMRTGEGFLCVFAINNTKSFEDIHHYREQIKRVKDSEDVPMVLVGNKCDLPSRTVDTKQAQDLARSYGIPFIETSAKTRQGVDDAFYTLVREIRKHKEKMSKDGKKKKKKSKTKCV

Row | DC50 (HiBit-KRAS^G12C [1]; [3]) [nM] | DC50 (HiBit-KRAS^G12C [2]; [4]) [nM] | SMILES | Dmax (HiBit-KRAS^G12C [1]; [5]) [%] | DC50 (HiBit-KRAS^G12C [2]; [7]) [nM] | also measured
1 | > 1000 | 100 to 1000 | C=C(F)C(=O)N1CCN(c2nc(OCCN3CCC(C)(COc4cc([C@@H](C(=O)N5C[C@H](O)C[C@H]5C(=O)N[C@@H](C)c5ccc(-c6ccnn6C)cc5)C(C)C)on4)CC3)nc3c(F)c(-c4cc(O)cc5ccccc45)c(Cl)cc23)C[C@@H]1CC#N (atropisomer, axis not shown) [Compound 125, (2S,4R)-1-[(2S)-2-[3-({1-[2-({6-chloro-4-[(3S)-3-(cyanomethyl)-4-(2-fluoroprop-2-enoyl)piperazin-1-yl]-8-fluoro-7-(3-hydroxynaphthalen-1-yl)quinazolin-2-yl}oxy)ethyl]-4-methylpiperidin-4-yl}methoxy)-1,2-oxazol-5-yl]-3-methylbutanoyl]-4-hydroxy-N-[(1S)-1-[4-(1-methyl-1H-pyrazol-5-yl)phenyl]ethyl]pyrrolidine-2-carboxamide] |  |  | 
2 | 100 to 1000 | < 100 | C=CC(=O)N1CCN(c2nc(OCCN3CCC(COc4cc([C@H](C(=O)N5C[C@H](O)C[C@H]5C(=O)N[C@@H](C)c5ccc(-c6ccnn6C)cc5)C(C)C)on4)CC3)nc3c(F)c(-c4cc(O)cc5ccccc45)c(Cl)cc23)C[C@@H]1CC#N [Compound 157, (2S,4R)-1-[(2R)-2-[3-({1-[2-({6-chloro-4-[(3S)-3-(cyanomethyl)-4-(prop-2-enoyl)piperazin-1-yl]-8-fluoro-7-(3-hydroxynaphthalen-1-yl)quinazolin-2-yl}oxy)ethyl]piperidin-4-yl}methoxy)-1,2-oxazol-5-yl]-3-methylbutanoyl]-4-hydroxy-N-[(1S)-1-[4-(1-methyl-1H-pyrazol-5-yl)phenyl]ethyl]pyrrolidine-2-carboxamide] |  |  | 
3 | 100 to 1000 | 100 to 1000 | C=C(F)C(=O)N1CCN(c2nc(OCCN3CCC4(CC3)CN(c3cc([C@H](C(=O)N5C[C@H](O)C[C@H]5C(=O)N[C@@H](C)c5ccc(-c6ccnn6C)cc5)C(C)C)on3)C4)nc3c(F)c(-c4cc(O)cc5ccccc45)c(Cl)cc23)C[C@@H]1CC#N (atropisomer, axis not shown) [Compound 112, (2S,4R)-1-[(2R)-2-(3-{7-[2-({6-chloro-4-[(3S)-3-(cyanomethyl)-4-(2-fluoroprop-2-enoyl)piperazin-1-yl]-8-fluoro-7-(3-hydroxynaphthalen-1-yl)quinazolin-2-yl}oxy)ethyl]-2,7-diazaspiro[3.5]nonan-2-yl}-1,2-oxazol-5-yl)-3-methylbutanoyl]-4-hydroxy-N-[(1S)-1-[4-(1-methyl-1H-pyrazol-5-yl)phenyl]ethyl]pyrrolidine-2-carboxamide] |  |  | Dmax (HiBit-KRAS^G12C [1]; [8]): > 70%; Dmax (HiBit-KRAS^G12C [2]; [9]): > 70%

Second part, the compound before the results:

Row | SMILES | DC50 (HiBit-KRAS^G12C [1]; [3]) [nM] | DC50 (HiBit-KRAS^G12C [2]; [4]) [nM] | Dmax (HiBit-KRAS^G12C [1]; [5]) [%] | DC50 (HiBit-KRAS^G12C [2]; [7]) [nM] | also measured
4 | C=CC(=O)N1CCN(c2nc(O[C@H]3CCC[C@@H]3N3CCC(COCC(=O)N[C@H](C(=O)N4C[C@H](O)C[C@H]4C(=O)N[C@@H](C)c4ccc(-c5scnc5C)cc4)C(C)(C)C)CC3)nc3c(F)c(-c4cc(O)cc5ccccc45)c(Cl)cc23)CC1 [Compound 12, (2S,4R)-1-[(2S)-2-[2-({1-[(1S,2S)-2-{[6-chloro-8-fluoro-7-(3-hydroxynaphthalen-1-yl)-4-[4-(prop-2-enoyl)piperazin-1-yl]quinazolin-2-yl]oxy}cyclopentyl]piperidin-4-yl}methoxy)acetamido]-3,3-dimethylbutanoyl]-4-hydroxy-N-[(1S)-1-[4-(4-methyl-1,3-thiazol-5-yl)phenyl]ethyl]pyrrolidine-2-carboxamide] |  |  | < 35 | 100 to 1000 | Dmax (HiBit-KRAS^G12C [1]; MIA PaCa-2, read-out: KRas^G12C-HiBiT (MiaPaCa; 0.5% DMSO) DMax, MiaPaCa-2 HiBit-KRas^G12C cells, 0.5% DMSO, maximum degradation): < 35%; Dmax (HiBit-KRAS^G12C [2]; SW1573, read-out: KRas^G12C-HiBiT (SW1573; 0.5% DMSO) Dmax**, SW1573 HiBit-KRas^G12C, 0.5% DMSO): 35 to 70%; Dmax (HiBit-KRAS^G12C [2]; [6]): 35 to 70%
5 | C=CC(=O)N1CCN(c2nc(OCCN3CCC(COCC(=O)N[C@H](C(=O)N4C[C@H](O)C[C@H]4C(=O)N[C@@H](C)c4ccc(-c5scnc5C)cc4)C(C)(C)C)CC3)nc3c(F)c(-c4cc(O)cc5ccccc45)c(Cl)cc23)CC1 (atropisomer, axis not shown) [Compound 9, (2S,4R)-1-[(2S)-2-(2-{[1-(2-{[6-chloro-8-fluoro-7-(3-hydroxynaphthalen-1-yl)-4-[4-(prop-2-enoyl)piperazin-1-yl]quinazolin-2-yl]oxy}ethyl)piperidin-4-yl]methoxy}acetamido)-3,3-dimethylbutanoyl]-4-hydroxy-N-[(1S)-1-[4-(4-methyl-1,3-thiazol-5-yl)phenyl]ethyl]pyrrolidine-2-carboxamide] |  |  |  | 100 to 1000 | KRas^G12C-HiBiT (MiaPaCa; 0.1% DMSO) DMax (HiBit-KRAS^G12C [1]; MiaPaCa-2 HiBit-KRas^G12C cells, 0.1% DMSO, maximum degradation): A (A ≥ 70); KRas^G12C-HiBiT (MiaPaCa; 0.5% DMSO) DMax (HiBit-KRAS^G12C [1]; MiaPaCa-2 HiBit-KRas^G12C cells, 0.5% DMSO, maximum degradation): A (A ≥ 70); KRas^G12C-HiBit (SW1573; 0.1% DMSO) Dmax** (HiBit-KRAS^G12C [2]; SW1573 HiBit-KRas^G12C, 0.1% DMSO): A (A ≥ 70)
6 | C=CC(=O)N1CCN(c2nc(O[C@H](C)CN3CC(N4CCN(CC(=O)N[C@H](C(=O)N5C[C@H](O)C[C@H]5C(=O)N[C@@H](C)c5ccc(-c6scnc6C)cc5)C(C)(C)C)CC4)C3)nc3c(F)c(-c4cc(O)cc5ccccc45)c(Cl)cc23)CC1 [Compound 62, (2S,4R)-1-[(2S)-2-[2-(4-{1-[(2R)-2-{[6-chloro-8-fluoro-7-(3-hydroxynaphthalen-1-yl)-4-[4-(prop-2-enoyl)piperazin-1-yl]quinazolin-2-yl]oxy}propyl]azetidin-3-yl}piperazin-1-yl)acetamido]-3,3-dimethylbutanoyl]-4-hydroxy-N-[(1S)-1-[4-(4-methyl-1,3-thiazol-5-yl)phenyl]ethyl]pyrrolidine-2-carboxamide] |  |  | < 35 | 100 to 1000 | Dmax (HiBit-KRAS^G12C [2]; [6]): 35 to 70%
7 | C=CC(=O)N1CCN(c2nc(OCCN3CCC(COCC(=O)N[C@H](C(=O)N4C[C@H](O)C[C@H]4C(=O)N[C@@H](C)c4ccc(-c5scnc5C)cc4)C(C)(C)C)CC3)nc3c(F)c(-c4cc(O)cc(C)c4C)c(Cl)cc23)C[C@@H]1CC#N [Compound 102, (2S,4R)-1-[(2S)-2-[2-({1-[2-({6-chloro-4-[(3S)-3-(cyanomethyl)-4-(prop-2-enoyl)piperazin-1-yl]-8-fluoro-7-(5-hydroxy-2,3-dimethylphenyl)quinazolin-2-yl}oxy)ethyl]piperidin-4-yl}methoxy)acetamido]-3,3-dimethylbutanoyl]-4-hydroxy-N-[(1S)-1-[4-(4-methyl-1,3-thiazol-5-yl)phenyl]ethyl]pyrrolidine-2-carboxamide] | 100 to 1000 | 100 to 1000 |  |  | Dmax (HiBit-KRAS^G12C [1]; [8]): > 70%; Dmax (HiBit-KRAS^G12C [2]; [9]): > 70%
8 | C=CC(=O)N1CCN(c2nc(OCCN3CCC(OCCOCC(=O)N[C@H](C(=O)N4C[C@@H](O)C[C@H]4C(=O)N[C@@H](C)c4ccc(-c5scnc5C)cc4)C(C)(C)C)CC3)nc3c(F)c(-c4cc(O)cc5ccccc45)c(Cl)cc23)C[C@@H]1CC#N [Compound 7, (2S,4S)-1-[(2S)-2-{2-[2-({1-[2-({6-chloro-4-[(3S)-3-(cyanomethyl)-4-(prop-2-enoyl)piperazin-1-yl]-8-fluoro-7-(3-hydroxynaphthalen-1-yl)quinazolin-2-yl}oxy)ethyl]piperidin-4-yl}oxy)ethoxy]acetamido}-3,3-dimethylbutanoyl]-4-hydroxy-N-[(1S)-1-[4-(4-methyl-1,3-thiazol-5-yl)phenyl]ethyl]pyrrolidine-2-carboxamide] |  |  | 35 to 70 | > 1000 | 

— patent US20220370416A1, “COMPOUNDS AND METHODS FOR TARGETED DEGRADATION OF KRAS” (Arvinas Operations, Inc., priority 2020, published 2022)
